Experimental findings from ChEMBL document CHEMBL1147140, “Strongylophorine-26, an inhibitor of cancer cell Invasion: SAR revealed by synthesis of analogues” (J Nat Prod, 2007) are described below.

The test system of assay [1] is MDA-MB-231. The assay can be described thus: Cytotoxicity against human MDA-MB-231 cells. It counts as cell-based.
The subject of assay [2] is MDA-MB-231. The assay can be described thus: Anti-invasive activity against human MDA-MB-231 cells at <= 0.3 ug/ml. It counts as functional, cell-based.

Converted amounts (≈) assume the structure as drawn. The source made the active and inactive calls. No cut-off for these calls is given here.

Usually IC50 stands for the midpoint of a concentration-inhibition curve. In the assay with MDA-MB-231 [1] (mda-mb-231), `COC1=CC(=O)C=C(C[C@H]2[C@]3(C)CC[C@H]4C(C)(C)CCC[C@]4(C)[C@H]3CC[C@]2(C)O)C1=O` (stereo in doubt; (+)-3) [listing 1 of 2 here] came in with an IC50 of 0.3 µg/mL (≈ 0.7 µM).

In the case of `COC1=CC(=O)C=C(C[C@H]2[C@]3(C)CC[C@H]4C(C)(C)CCC[C@]4(C)[C@H]3CC[C@]2(C)O)C1=O` (stereo in doubt; (+)-3) [listing 2 of 2 here], in the assay on MDA-MB-231 [2], the result was inactive.

For `COC1=CC(=O)C=C(C[C@H]2[C@]3(C)CC[C@H]4C(C)(C)CCC[C@]4(C)[C@H]3CC[C@]2(C)O)C1=O` (stereo in doubt; (-)-3) [listing 1 of 2 here], the IC50 in the assay on MDA-MB-231 [1] (Homo sapiens, MDA-MB-231, read-out: IC50) was determined as 0.3 µg/mL (≈ 0.7 µM).

For `COC1=CC(=O)C=C(C[C@H]2[C@]3(C)CC[C@H]4C(C)(C)CCC[C@]4(C)[C@H]3CC[C@]2(C)O)C1=O` (stereo in doubt; (-)-3) [listing 2 of 2 here], in the assay on MDA-MB-231 [2], the result was inactive.
